Experimental data reported in the NIST ThermoML archive (doi:10.1016/j.jct.2012.02.007).

What was measured:
[1] = mn = molality of the nth substance listed, in mol/kg; conditions: 101.3 kPa, Liquid; for speed of sound: Sing-around technique in a fixed-path interferometer; for mass density: Vibrating tube method
[2] = osmotic coefficient (dimensionless); mn = molality of the nth substance listed, in mol/kg; conditions: 323.15 K, Liquid, Vapor Pressure Osmometer

CCCCn1cc[n+](C)c1.N#CN=C=[N-] [1-butyl-3-methylimidazolium dicyanamide] + CCC(C)O
[1]
Conditions | mass density, 293.15 K [kg/m3] | mass density, 308.15 K [kg/m3] | mass density, 323.15 K [kg/m3] | speed of sound, 293.15 K [m/s] | speed of sound, 308.15 K [m/s] | speed of sound, 323.15 K [m/s]
m1 = 0.0516 | 809.04 | 796.59 | 783.23 | 1234.5 | 1180.7 | 1125.7
m1 = 0.1009 | 811.17 | 798.81 | 785.57 | 1238.1 | 1184.9 | 1130.4
m1 = 0.1501 | 813.3 | 801.01 | 787.88 | 1241.8 | 1188.8 | 1134.6
m1 = 0.2081 | 815.7 | 803.5 | 790.47 | 1246 | 1193.3 | 1139.5
m1 = 0.2579 | 817.76 | 805.61 | 792.68 | 1249.3 | 1197.1 | 1143.6
m1 = 0.5079 | 827.23 | 815.35 | 802.8 | 1265.7 | 1214.4 | 1162.3
m1 = 0.7631 | 836.25 | 824.57 | 812.32 | 1281.1 | 1230.8 | 1179.8
m1 = 1.016 | 844.37 | 832.86 | 820.86 | 1295.3 | 1245.9 | 1195.9
m1 = 1.267 | 851.96 | 840.59 | 828.79 | 1308.6 | 1260 | 1210.9
m1 = 1.517 | 858.95 | 847.71 | 836.09 | 1321.1 | 1273 | 1224.8
m1 = 1.782 | 865.94 | 854.81 | 843.35 | 1333.7 | 1286.2 | 1238.7
m1 = 1.95 | 870.16 | 859.09 | 847.71 | 1341.3 | 1294.2 | 1247
m1 = 2.523 | 883.17 | 872.28 | 861.18 | 1365.1 | 1319.1 | 1273.2
m1 = 3.56 | 902.51 | 891.67 | 880.92 | 1401.6 | 1356.4 | 1312.5

[2]
Conditions | osmotic coefficient
m1 = 0.0525 | 0.893
m1 = 0.0792 | 0.826
m1 = 0.0995 | 0.811
m1 = 0.2159 | 0.76
m1 = 0.3148 | 0.715
m1 = 0.4003 | 0.687
m1 = 0.5143 | 0.653
m1 = 0.8478 | 0.592
m1 = 1.241 | 0.556
m1 = 1.639 | 0.538
m1 = 2.038 | 0.524
m1 = 2.439 | 0.517
m1 = 2.842 | 0.502
m1 = 3.307 | 0.492

CCCCn1cc[n+](C)c1.N#CN=C=[N-] [1-butyl-3-methylimidazolium dicyanamide] + CCCCCO
[1]
Conditions | mass density, 293.15 K [kg/m3] | mass density, 308.15 K [kg/m3] | mass density, 323.15 K [kg/m3] | speed of sound, 293.15 K [m/s] | speed of sound, 308.15 K [m/s] | speed of sound, 323.15 K [m/s]
m1 = 0.0499 | 816.84 | 805.86 | 794.56 | 1296.1 | 1246.2 | 1196.7
m1 = 0.1005 | 818.99 | 808.05 | 796.79 | 1299.3 | 1249.5 | 1200.3
m1 = 0.1579 | 821.34 | 810.43 | 799.21 | 1302.8 | 1253.2 | 1204.2
m1 = 0.2012 | 823.14 | 812.25 | 801.07 | 1305.5 | 1256 | 1207.2
m1 = 0.2575 | 825.39 | 814.53 | 803.38 | 1308.7 | 1259.4 | 1210.8
m1 = 0.5093 | 834.72 | 823.96 | 812.96 | 1322.3 | 1273.7 | 1225.8
m1 = 0.7636 | 843.46 | 832.73 | 821.84 | 1334.4 | 1286.4 | 1238.6
m1 = 1.022 | 851.58 | 840.96 | 830.18 | 1346.7 | 1299.3 | 1252.8
m1 = 1.271 | 858.96 | 848.35 | 837.65 | 1357 | 1310.2 | 1263.7
m1 = 1.52 | 865.82 | 855.32 | 844.69 | 1367.7 | 1321.4 | 1275.9
m1 = 1.766 | 872.07 | 861.65 | 851.09 | 1377 | 1331.2 | 1286.1
m1 = 1.982 | 877.32 | 866.91 | 856.41 | 1385 | 1339.5 | 1294.8
m1 = 2.527 | 889.3 | 878.99 | 868.61 | 1403.6 | 1358.9 | 1315.1
m1 = 2.998 | 898.47 | 888.26 | 877.98 | 1418.4 | 1374.3 | 1331.1
m1 = 3.512 | 907.39 | 897.32 | 887.14 | 1432.6 | 1389.6 | 1347

[2]
Conditions | osmotic coefficient
m1 = 0.0625 | 0.784
m1 = 0.0829 | 0.719
m1 = 0.1019 | 0.669
m1 = 0.2131 | 0.627
m1 = 0.3093 | 0.596
m1 = 0.4113 | 0.582
m1 = 0.5349 | 0.566
m1 = 0.8273 | 0.537
m1 = 1.131 | 0.52
m1 = 1.443 | 0.509
m1 = 1.749 | 0.502
m1 = 2.246 | 0.493
m1 = 2.756 | 0.478
m1 = 3.23 | 0.458
